Results taken from article PMC12548414 (Journal of Bacteriology, 2025).
Converted amounts (≈) assume the structure as drawn.

Assays:
[1] = tested on: T1, E. coli pLC1021 (luc-trpAt trans-translation reporter); set-up: species or system Escherichia coli pLC1021; luc-trpAt non-stop luciferase reporter; luminescence rises when trans-translation is inhibited; normalized to KKL-35 and DMSO; settings: 2 h, 20 µM
T1 construct: pLC1021 luc-trpAt reporter strain
Protocol: The luciferase screen was performed as previously described ([16]). […] 48 µL of cells was transferred to white 96-well plates, and 2 µL DMSO or 20 µM compound, or 20 µM KKL-35 was added. Plates were sealed with adhesive film, vortexed gently to mix, and incubated at room temperature for 2 h. 50 µL Bright-Glo reagent (Promega, Madison, WI) was added to each well, and the plates were sealed with adhesive film, vortexed vigorously, and incubated for an additional 10 min at room temperature. Luminescence was measured at 560 nm using a SpectraMax i3 microplate reader and readings for each plate were normalized to the average of three KKL-35-treated wells (positive control) and three DMSO-treated wells (negative control) within the plate to correct for plate-to-plate and day-to-day variations. Results from at least two biological repeats were averaged, and GraphPad Prism was used to plot the data. We screened a library of 1,601 anti-tubercular small molecules for their ability to inhibit trans-translation using a luciferase reporter in Escherichia coli. In this luc-trpAt reporter, the firefly luciferase gene has a trpA transcriptional terminator before the stop codon, such that luciferase is translated from a non-stop mRNA ([16]). When trans-translation is active, the luciferase will be tagged and degraded, but when trans-translation is inhibited, active luciferase will accumulate, resulting in a luminescent signal when luciferin is added. Luciferase activity was measured after growth in the presence of compounds from the library at 20 µM, using the known trans-translation inhibitor KKL-35 as a positive control (Fig. 1A) ([16], [17]). Compounds with activity one standard deviation above the median were scored as positive (Fig. S1 and Table S1).

ribosomal protein bL12 [2] = biological target: T2, ribosomal protein bL12 (Mycobacterium tuberculosis, UniProt P9WHE3); experiment: biochemical; assay type: binding
T2 construct: gene rplL; 6His-tagged M. tuberculosis bL12
T2 sequence (P9WHE3 1-130): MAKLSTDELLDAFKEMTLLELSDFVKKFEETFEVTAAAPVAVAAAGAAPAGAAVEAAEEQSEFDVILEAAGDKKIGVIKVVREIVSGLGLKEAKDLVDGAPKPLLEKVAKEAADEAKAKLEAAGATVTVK

M. tuberculosis = experiment: microbe, parasite or virus in culture; set-up: species or system Mycobacterium tuberculosis H37Rv ΔRD1 ΔpanCD; settings: Mycobacterium tuberculosis, 168 h, read-out: MIC
B. anthracis = experiment: microbe, parasite or virus in culture; settings: Bacillus anthracis, 20 h, read-out: MIC
E. coli ΔtolC = tested on: T3, E. coli ΔtolC; experiment: microbe, parasite or virus in culture; set-up: species or system Escherichia coli ΔtolC; broth microdilution MIC, lowest concentration with no visible growth; settings: Escherichia coli, 20 h, read-out: MIC
T3 construct: ΔtolC

ribosomal protein bL12 [3] = biological target: T4, ribosomal protein bL12 (Escherichia coli, UniProt P0A7K2); experiment: biochemical; assay type: binding
T4 construct: gene rplL
T4 sequence (P0A7K2 2-121): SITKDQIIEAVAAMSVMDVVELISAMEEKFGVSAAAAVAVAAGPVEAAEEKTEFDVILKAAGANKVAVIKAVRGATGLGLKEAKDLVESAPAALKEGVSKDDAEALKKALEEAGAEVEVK

SMILES | % activation [1] [%] | other results
CC(C)[C@H]1OC(=O)[C@H](Cc2ccccc2)N(C)C(=O)[C@@H](C(C)C)OC(=O)[C@H](Cc2ccccc2)N(C)C(=O)[C@@H](C(C)C)OC(=O)[C@H](Cc2ccccc2)N(C)C1=O [KKL-0304] | 0 | 
O=C(Nc1nc(NC(=O)c2ccco2)n(-c2ccccc2)n1)c1ccccc1 [KKL-1005, N-(5-benzamido-2-phenyl-1,2,4-triazol-3-yl)furan-2-carboxamide] |  | Kd (ribosomal protein bL12 [2]): 4 ± 0.2 µM; MIC (M. tuberculosis): 4.7 µg/mL (≈ 12.6 µM); MIC (B. anthracis): 9.3 µg/mL (≈ 24.9 µM); MIC (E. coli ΔtolC): 9.3 µg/mL (≈ 24.9 µM); Kd (ribosomal protein bL12 [3]): 8 ± 2 µM
CCc1ccc([C@@H]2C[C@H](C(F)(F)F)n3ncc(C(=O)NCc4ccc(OC)cc4)c3N2)cc1 [KKL-1692] | 0 | 
Cc1cccc(-c2nc(Nc3ccncn3)c3sccc3n2)n1 [KKL-1695] | 0 | 
Cc1cccc(-c2nc(Nc3ccncn3)c3c(C)csc3n2)n1 [KKL-1712] | 6 | 
O=C(NC12CC3CC(CC(C3)C1)C2)c1cc2cc(Cl)ccc2[nH]1 [KKL-1781] | 0 | 
c1cc2c(s1)CCOC21CCN(Cc2ccc3c(c2)OCCO3)CC1 [KKL-1815] | 0 | 
COc1ccc(CCNc2cc(-c3ccccc3)nc3ncnn23)cc1 [KKL-1831] | 3 | 
Cc1ccc2nc(C)c(C(=O)NCc3cccs3)n2c1 [KKL-1863] | 4 | 
CNc1nc(SC)nc2ccccc12 [KKL-1869] | 0 | 
